Test results as given in patent publication US5635510A, “Substituted pyrrolidin-3-yl-alkyl-piperidines” (Merrell Pharmaceuticals Inc., priority 1994, dated 1997).

Legend:
[1] = target: T1, NK2 receptor (Bos taurus, UniProt P05363); experiment: Antagonism of NK2 receptor mediated (NKA-induced) phosphatidylinositol turnover in SKLKB82#3 cells; assay type: cell-based
T1 construct: expressed in transfected cells; host or cells: SKLKB82#3 cells
T1 sequence (P05363 1-384): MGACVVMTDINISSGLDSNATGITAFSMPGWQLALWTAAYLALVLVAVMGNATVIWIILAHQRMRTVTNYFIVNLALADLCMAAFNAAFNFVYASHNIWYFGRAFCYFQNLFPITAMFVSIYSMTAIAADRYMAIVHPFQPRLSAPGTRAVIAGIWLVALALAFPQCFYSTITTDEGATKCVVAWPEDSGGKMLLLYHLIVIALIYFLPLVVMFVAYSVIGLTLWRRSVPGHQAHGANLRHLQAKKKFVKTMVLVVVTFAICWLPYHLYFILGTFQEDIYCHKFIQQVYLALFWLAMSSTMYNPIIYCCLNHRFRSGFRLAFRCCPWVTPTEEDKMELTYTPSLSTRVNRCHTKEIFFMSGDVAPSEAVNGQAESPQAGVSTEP
Procedure: Tachykinin-mediated inositol phosphate accumulation was measured in UC11 or SKLKB82#3 cells in the presence and absence of NK1 or NK2 receptor antagonists, respectively. Tissues were incubated in Krebs-Henseleit buffer at 37° C. with 95% O2 -5% CO2 gassing. Tissues were then incubated with fresh buffer containing 100 μCi of myo-[2-3H(N)] inositol at 37° C. for 60 min with gentle gassing. After washing twice in 5 ml room temperature buffer containing 10 mM LiCl, tissues were incubated for 30 min at room temperature with a buffer change at 15 min. Buffer was removed and Krebs-Henseleit buffer (containing 40 μg/ml bacitracin, 4 μg/ml each of leupeptin and chymostatin, 0.1% bovine serum albumin and 10 mM each of thiorphan and LiCl) added. After 15 min, SP was added to UC11 cells or NKA to SKLKB82#3 cells at various concentrations to start the reaction. After incubation for 60 min at room temperature the reaction was terminated by addition of 930 μl chloroform: methanol (1:2 by volume) to each tube, followed by 310 μl chloroform and 310 μl doubly distilled water. Samples were vortexed, centrifuged, and 0.9 ml of the aqueous (top) phase removed and added to 2 ml ddH2 O. The mixture was vortexed and loaded onto a 50% Bio-Rad AG 1-X8 (formate form, 100-200 mesh) exchange column (Bio-Rad Laboratories, Hercules, Calif.). The columns were washed, in order, with: 1) 10 ml doubly distilled water, 2) 5 ml of 5 mM disodium tetraborate/60 mM sodium formate, and 3) 5 ml of 1M ammonium formate/0.1M formic acid. The third elution was collected and 1 ml counted in 7 ml scintillation fluid. A 50 μl aliquot of the organic (bottom) phase was removed, dried in a scintillation vial and counted in 7 ml scintillation fluid.
The ratio of DPM in the aqueous phase aliquot (total inositol phosphates) to the DPM in the 50 μl organic phase aliquot (total [^3 H]inositol incorporated) was calculated for each sample. Data are expressed as a percent of agonist-induced accumulation of [^3 H]-inositol phosphates over basal levels. […] Dose-response graphs were constructed and the abilities of the test compounds to inhibit tachykinin-induced phosphatidyinositol turnover determined with the aid of a computer program. […] Data is expressed as percent stimulation of total inositol phosphate accumulation over basal levels and normalized to the maximum response produced by SP. […] Schild analysis is performed using dose response curves (such as those presented in FIGS. 1a and 1b) to obtain a value indicative of the strength of a competitive antagonist and is expressed as the pA2, which is the negative logarithm of the molar concentration of antagonist which reduces the effect of a dose of agonist to one-half of that expected at the dose of agonist.

[2] = system: NK2 receptor; experiment: Antagonism of NKA-induced respiratory effects in conscious guinea pigs; assay type: in vivo, guinea pig; settings: for dyspnea incidence / dyspnea onset: i.v. 20 min prior to NKA aerosol (0.05%); for dyspnea onset: mean and SEM; for effect on NKA-induced respiratory effects (in words): NKA aerosol, dose dependent
Procedure: (§1) In vivo experiments were performed using male Duncan Hartley guinea pigs (250-350g). Changes in conscious breathing patterns were monitored in four animals simultaneously using modified whole body plethysmography consisting of four small plexiglass boxes each connected to a reference box via Validyne DP 45-16 differential pressure transducers. The 4 boxes were equipped with an air supply line (also used for aerosol delivery) and an exhaust air line. Supply and exhaust lines were of the same length and narrow bore and arose from a common supply chamber and vented to a common exhaust chamber. This system was used to ensure that fluctuations in supply air and atmospheric pressure would remain in phase and be eliminated from the net signal by the differential pressure transducers. The analog pressure signals were digitalized via a Data Translation DT2821 A to D board. Data were collected at a rate of 100 samples/second/animal. Each cycle of pressure change was analyzed using the following parameters: rising and falling slope determined between minimum and maximum pressures, the ratio of rising over falling slope, and the magnitude of the change between initial trough pressure and peak cycle pressure. Using these values (and observing the animals) the pressure cycles were characterized into normal breaths, forced exhalations (apparent by abdominal heaving), significant respiratory events (SREs; usually coughs, less often sneezes or gasps which were characterized by transient, extremely large pressure increases which were distinguishable from noise) and movement/noise with a PCAT 286 running a System V UNIX operating system. Dyspnea was defined as a significant, sustained increase in plethysmograph pressure which was associated with an observable shift to labored breathing in the animal.
(§2) During the course of a typical experiment in which airway responsiveness to various bronchoconstricting agents was examined, aerosols were delivered for 19 min (0.33 ml/min) using a DeVilbiss Ultraneb 99 ultrasonic nebulizer and animals monitored during this time. Prior to nebulization, 1 min of resting breathing was collected to establish a baseline pressure. […] The vehicle for nebulization of all bronchoconstrictive agents was phosphate buffered saline (pH 7.4) which elicited no respiratory effects itself. Putative tachykinin antagonists were administered either (i.v.) 20 min prior to onset of aerosol exposure or orally 1 hour prior to onset (to guinea pigs after an overnight fast).

[3] = system: NK1 and NK2 receptors; experiment: Modulation of respiratory effects produced by capsaicin aerosol in conscious guinea pigs; assay type: in vivo, guinea pig; settings: for dyspnea onset / maximum pressure increase: capsaicin aerosol; for dyspnea onset / maximum pressure increase / SRE number (coughs/gasps): mean and SEM; for SRE number (coughs/gasps): during 19 min capsaicin exposure; for dyspnea incidence: i.v. 20 min prior to capsaicin aerosol (0.001%)
Procedure: as §1, §2
Capsaicin aerosol is known to promote release of the tachykinins SP and NKA from sensory nerves in the airways of guinea pigs which may then act upon NK1 and NK2 receptors, respectively to elicit respiratory effects.

## COc1cc(C(=O)N2CCC(CCN3CCC(C(N)=O)(c4ccccc4)CC3)(c3ccc(Cl)c(Cl)c3)C2)cc(OC)c1OC (single isomer, unassigned; (+)) [Example 20, (+)-1-[2-[3-(3,4-dichloro-phenyl)-1-(3,4,5-trimethoxy-benzoyl)-pyrrolidin-3-yl]-ethyl]-4-phenylpiperidine-4-carboxylic acid amide]
[1]
  Kb: 2.14 nM
[1]; SKLKB82#3 cells, NKA, Schild slope, mean (95% confidence limits)
  NK-2 receptor slope: 1.00

## COc1cc(C(=O)N2CCC(CCN3CCC(C(N)=O)(c4ccccc4)CC3)(c3ccc(Cl)c(Cl)c3)C2)cc(OC)c1OC.Cl (single isomer, unassigned; (+)) [Example 20A, (+)-1-[2-[3-(3,4-dichloro-phenyl)-1-(3,4,5-trimethoxy-benzoyl)-pyrrolidin-3-yl]-ethyl]-4-phenyl-piperidine-4-carboxylic acid amide hydrochloride]
[2]; 1 mg/kg
  dyspnea incidence: 100%
  dyspnea onset: 451 ± 30 s
[2]; 5 mg/kg
  dyspnea incidence: 90%
  dyspnea onset: 706 ± 82 s
[2]; 10 mg/kg
  dyspnea incidence: 70%
  dyspnea onset: 829 ± 105 s
[2]
  effect on NKA-induced respiratory effects (in words): reduced the effects of NKA aerosol
[3]; 1 mg/kg i.v.
  dyspnea onset: 331 ± 22 s
  maximum pressure increase: 1.0 ± 0.1 mmH2 O
  SRE number (coughs/gasps): 9.9 ± 2.7
[3]; 1 mg/kg
  dyspnea incidence: 77.8%
[3]; 2.5 mg/kg i.v.
  dyspnea onset: 426 ± 57 s
  maximum pressure increase: 0.6 ± 0.1 mmH2 O
  SRE number (coughs/gasps): 8.3 ± 1.6
[3]; 2.5 mg/kg
  dyspnea incidence: 100%
[3]; 5 mg/kg i.v.
  dyspnea onset: 597 ± 186 s
  maximum pressure increase: 0.8 ± 0.06 mmH2 O
  SRE number (coughs/gasps): 4.4 ± 1.9
[3]; 5 mg/kg
  dyspnea incidence: 44.4%
[3]; 10 mg/kg i.v.
  dyspnea onset: 592 ± 71 s
  maximum pressure increase: 0.8 ± 0.1 mmH2 O
  SRE number (coughs/gasps): 3.3 ± 1.1
[3]; 10 mg/kg
  dyspnea incidence: 55.6%
[3]; intravenous
  effect on capsaicin-induced respiratory effects (in words): attenuate capsaicin-induced respiratory effects

## COc1cc(C(=O)N2CCC(CCN3CCC(C(N)=O)(c4ccccc4)CC3)(c3ccc(Cl)c(Cl)c3)C2)cc(OC)c1OC (stereo not drawn) [Example 3, 1-[2-[3-(3,4-dichloro-phenyl)-1-(3,4,5-trimethoxy-benzoyl)-pyrrolidin-3-yl]-ethyl]-4-phenyl-piperidine-4-carboxylic acid amide]
[1]; SKLKB82#3 cells, FIG. 1b
  antagonism of NKA-induced PI turnover (in words): antagonizes both NK1 (on UC11 cells) and NK2 (on SKLKB82#3) receptors in a dose-dependent manner
[2]; 5 mg/kg
  dyspnea incidence: 86%
[2]; 10 mg/kg
  dyspnea incidence: 60%
[2]
  effect on NKA-induced respiratory effects (in words): reduced the effects of NKA aerosol
